We go through 3 molecules from ChEMBL document CHEMBL1201862, “PubChem BioAssay data set” (2004).

Assay in all cases: NCI anticancer screen, dose series, 48 h
Experiment [1] relates to 786-0.
Experiment [2] relates to CAKI-1.
The subject of experiment [3] is COLO 205.
Experiment [4] relates to HL-60.
For experiment [5], the system named is HOP-62.
Experiment [6] has as its system K562.
Experiment [7] deals with M14.
Experiment [8] relates to MDA-MB-435.
Experiment [9] has as its system MDA-N.
Experiment [10] deals with MOLT-4.
Experiment [11] has as its system Malme-3M.
The test system of experiment [12] is NCI-H23.
For experiment [13], the system named is NCI-H522.
Experiment [14] has as its system NCI/ADR-RES.
Experiment [15] has as its system PC-3.
The subject of experiment [16] is SK-MEL-28.
The test system of experiment [17] is SK-MEL-2.
Experiment [18] deals with SN12C.
Experiment [19] has as its system SNB-19.
Experiment [20] deals with U-251.

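Briefly, cells in 96-well plates were exposed to five compound concentrations for 48 h, and endpoints were estimated by linear interpolation. GI50 marks 50% less growth.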 Active and inactive are the calls of the source. No stated cut-off is given here; in the data, active = GI50 up to about 1.1 µM and inactive = higher.

Regarding `CC(=O)OC1C[C@@H](C)C2(C[C@H](O)c3ccoc3)C(=O)OC[C@]13C2CCC(O)C31CO1` (stereo not given in full), the GI50 in experiment [1] is > 100000 nM (inactive); in experiment [2], > 100000 nM (inactive); in experiment [3], > 100000 nM (inactive); in experiment [4], > 10000 nM (inactive); in experiment [5], > 100000 nM (inactive); in [6] it was > 100000 nM (inactive). The GI50 in experiment [7], in experiment [8], in experiment [9], in experiment [10], in [11] and in [12] was > 100000 nM (inactive) throughout. Further, the GI50 in experiment [13], in [14], in [15], in experiment [16], in experiment [17] and in experiment [18] was > 100000 nM (inactive) throughout. Besides, the GI50 in experiment [19] and in experiment [20] was > 100000 nM (inactive) in each case.

Consider `CC1=C(N2CC2)C(=O)c2nc3n(c2C1=O)CCC3OC(=O)CCl` (stereo not given), for which the GI50 is 52 nM (active) in [1]; 61.5 nM (active) in [2]; 128 nM (active) in [3]; 206 nM (active) in [4]; 53.2 nM (active) in experiment [5]; 61.8 nM (active) in experiment [6]. Further, the GI50 in experiment [7] is 36.1 nM (active); in experiment [8] it was 29.8 nM (active); in [9] it was 22.2 nM (active); in [10], 753 nM (active); in experiment [11], 45.3 nM (active); in experiment [12], 35.8 nM (active). The GI50 in experiment [13] was 27.4 nM (active); in [14] it was 24.9 nM (active); in experiment [15], 21.4 nM (active); in experiment [16] it was 55.5 nM (active); in experiment [17] it was 47.8 nM (active); in experiment [18], 57.3 nM (active). Also, the GI50 in experiment [19] was 53.8 nM (active); in experiment [20], 25.2 nM (active).

As to `CO[C@H]1Nc2c(ccc(C)c2O)C(=O)N2C=C(/C=C/C(N)=O)C[C@@H]12` [ANTHRAMYCIN METHYL ETHER], the GI50 is 16.3 nM (active) in [1]; 47 nM (active) in experiment [2]; 31.6 nM (active) in experiment [3]; 43.6 nM (active) in experiment [4]; 18.6 nM (active) in [5]; 39.6 nM (active) in [6]. The GI50 in experiment [7] is 14.3 nM (active); in [8] it was 14 nM (active); in experiment [9], 13.3 nM (active); in experiment [10] it was 27.6 nM (active); in experiment [11], 26.1 nM (active); in experiment [12], 32.7 nM (active). Further, the GI50 in experiment [13] was 22.2 nM (active); in experiment [14], 31.5 nM (active); in experiment [15], 21.5 nM (active); in experiment [16], 29.9 nM (active); in [17], 15.1 nM (active); in experiment [18], 22.1 nM (active). In addition, the results for the GI50 in experiment [19] and in experiment [20] were < 17.9 nM (active) and 16.2 nM (active), respectively.
